Test system: C57BI/6N male mice
Experiment: Oral glucose tolerance test (OGTT) in C57BI/6N male mice
Type: in vivo
Conditions: single peroral dose 60 min before glucose 2 g/kg; Z1558775684 20 mg/kg, Metformin 300 mg/kg; compared with the Vehicle-treated group; 5 mice per group
Protocol: Values are expressed as means of 5 animals tested. For glucose tolerance test (GTT), mice were orally treated with glucose at dose of 2 g/kg at the dose volume of 10 ml/kg after a 6-hour fasting. Glucose measurements were performed immediately before compound treatment (−60 min), at −30 min, 0 min (before glucose administration), and then 15, 30, 60, 90 and 120 min after glucose administration.
EXAMPLE 87: OGTT TESTING IN C57BI/6N MALE MICE
Each experimental group consisted of five male C57BI/6N mice. Animals were dosed once perorally with 20 mg/kg of tested compound Z1558775684. A control group was dosed with vehicle on the same schedule. Metformin at the dosage of 300 mg/kg was used as reference compound.
Compound Z1558775684 was dissolved/suspended in DMSO-PEG400-physiological saline (20%:50%:30%) at concentration 4 mg/ml. Metformin was dissolved in the same vehicle at concentration 60 mg/ml. The test samples were administered per os in the volume corresponding to 5 ml/kg body weight.
Single doses of test samples were administered 60 min before glucose treatment at 3 p.m.
The blood glucose level was measured after 6-hour fasting using Call Plus glucometer and specific test strips. Blood was obtained from the tail vein by incision of the tail tip, 5-6 μl of blood was used for each assay. […]

## CCc1nc(N)nc(SCc2ncc(-c3cccc(Cl)c3)o2)n1 [Compound Z1558775684, 4-({[5-(3-chlorophenyl)-1,3-oxazol-2-yl]methyl}sulfanyl)-6-ethyl-1,3,5-triazin-2-amine]
  glucose level during oral glucose tolerance test (OGTT): Statistically significant decrease in glucose level

## CN(C)C(=N)N=C(N)N [Metformin]
  glucose level during oral glucose tolerance test (OGTT): Statistically significant decrease in glucose level
